Data from patent US6034085A, “Salt form of nefazodone for use in extended release formulations” (Bristol-Myers Squibb Co., priority 1998, dated 2000).
Entries after “also recorded” stand apart in the source; their conditions may differ. Where a name gives a salt, the structure may show the parent alone. Read-outs that look alike come from different tables or passages of the source.

Key:
[1] = Intrinsic dissolution of various nefazodone salts in water at 37° C.; assay type: physicochemical; conditions: for Intrinsic Dissolution Rate: n = 2; for Final pH: pH of the aqueous medium after dissolution had occurred
Method: Table 1 sets out intrinsic dissolution rates for various salts of nefazodone in water at 37° C. The final pH value is the pH of the aqueous medium after dissolution had occurred. […] Note, however, that the tosylate salt's dissolution rate is also slow even though the media is acidic in nature.
The intrinsic dissolution experiments were performed with 75 mL water as the dissolution medium. The details of these dissolution experiments are summarized below:
Container: Double-walled beaker, 100 mL capacity, round bottom.
Volume of sample withdrawn per interval: 1 mL.
Temperature of the solution in the beaker was maintained by means of a circulating waterbath. The medium was stirred with a USP II paddle using 100 rpm stirring rate (paddle depth=1 inch below the surface of the medium). Samples were withdrawn through a 0.45 μm syringe filter and were analyzed without any further dilution or treatment by HPLC (Method 1).

[2] = Drug release from tablets in simulated gastric fluid pH 1.2 (FIG. 2); assay type: physicochemical; conditions: pH 1.2, 37° C.
Method: (§1) The curves are plotted as percent nefazodone released over time in hours.
(§2) Remaining dissolution experiments were made with the nefazodone salts formulated into tablets as described more fully infra. Essentially, the tablets were comprised of a nefazodone salt, hydroxypropylcellulose, lactose and magnesium stearate.
(§3) Release Profiles from the Tablet Formulation
(§4) The preparation and characterization of tablets of salts of nefazodone was performed as described below:
(§5) The nefazodone salt, hydroxypropyl cellulose EF and lactose were mixed for 10-15 minutes. Magnesium stearate was added to this mixture, mixing it for five more minutes. Tablets were compressed using a Manesty machine (Model-Manesty B3B). The tablet hardness was approximately 7 SCU.
(§6) Dissolution studies were performed with a USP II apparatus in simulated gastric fluid (USP, pH 1.2), simulated intestinal fluid (USP, pH 7.5) and 0.5 M THAM (pH 7.7). The details of conditions for the dissolution experiments are as follows:
(§7) […]: 900 mL.
(§8) Sample volume withdrawn at each interval: 0.7 mL.
(§9) Samples were filtered during withdrawal and chromatographed without further dilution or treatment. Samples were analyzed by Waters HPLC system. The HPLC conditions are listed in Method 2 below.

[3] = extended release formulations, cited from earlier work
[4] = cited from earlier work
[5] = Drug release from tablets in simulated intestinal fluid pH 7.5 (FIG. 3); assay type: physicochemical; conditions: pH 7.5, 37° C.
Method: as §1, §2, §3, §4, §5, §6, §7, §8, §9

[6] = Aqueous solubility of nefazodone as a function of pH; assay type: physicochemical; conditions: gastrointestinal tract / pH range
[7] = Stability under pharmaceutical processing and storage; assay type: physicochemical; conditions: pharmaceutical processing/handling and storage; listed as mesylate salt
[8] = Drug release from tablets in 0.5M THAM buffer (FIG. 4); assay type: physicochemical; conditions: 37° C.
Method: as §1, §2, §3, §4, §5
The details of conditions for the dissolution experiments are as follows:
as §7, §8, §9

[9] = Dissolution of powdered nefazodone salts in 0.125M THAM buffer (FIG. 1); assay type: physicochemical; conditions: powder, pH 7.5, 37° C.
Method: The curves are plotted as cumulative amounts of nefazodone versus time in minutes.
To assess solubility in non-acidic media, dissolution rates were determined for selected nefazodone salts in THAM buffer (0.125M, pH 7.5) made by dissolving tri(hydroxymethyl)aminomethane in water and adjusting the pH with conc. hydrochloride acid.
Intrinisic Dissolution Experiments in THAM
THAM buffer was prepared by dissolving tri(hydroxymethyl)aminomethane in water and adjusting the pH with concentrated hydrochloric acid. Dissolution of salts of nefazodone in powder form was studied in this medium.
The experiments were conducted in 0.125 M THAM (pH 7.7) at 37° C. using the USP II dissolution apparatus. Nefazodone […] in powder form (about 75-80 mg) were added to 900 mL dissolution medium stirred at 50 rpm and samples were withdrawn at time points up to 2 hours. The USP official method recommends paddles to be 1 inch from the bottom. In this experiment, paddles were 3/4 inch from the bottom. The paddle depth was altered to facilitate suspension of the powder during experiments. Samples were analyzed using HPLC assay.

[10] = cited from earlier work; remark: listed apart in the source

Structure (SMILES) | solubility / dissolution rate in water [1] | Intrinsic Dissolution Rate [1] | Final pH [1] | other results
CCc1nn(CCCN2CCN(c3cccc(Cl)c3)CC2)c(=O)n1CCOc1ccccc1 [DL-Malate] | – | 0.98 mg/min/cm 2 | 4.3 | –
CCc1nn(CCCN2CCN(c3cccc(Cl)c3)CC2)c(=O)n1CCOc1ccccc1 [Hydrochloride, reference compound] | – | 0.93 mg/min/cm 2 | 4.4 | drug release from tablets ([2]; listed as hydrochloride salt): good solubility; bioavailability [3]: low observed bioavailability; solubility in the intestinal tract ([4]; intestinal tract, pH ranges from about 5-7): low solubility
CCc1nn(CCCN2CCN(c3cccc(Cl)c3)CC2)c(=O)n1CCOc1ccccc1 [L-Malate] | – | 1.36 mg/min/cm 2 | 4.2 | –
CCc1nn(CCCN2CCN(c3cccc(Cl)c3)CC2)c(=O)n1CCOc1ccccc1 [L-Tartrate] | – | 0.97 mg/min/cm 2 | 3.8 | –
CCc1nn(CCCN2CCN(c3cccc(Cl)c3)CC2)c(=O)n1CCOc1ccccc1 [Tosylate] | slow | 0.1 mg/min/cm 2 | 4.4 | –

More lines, main results first:

solubility / dissolution rate in water [1] | Intrinsic Dissolution Rate [1] | Final pH [1] | Structure (SMILES) | other results
Low solubilities | 0.03 mg/min/cm 2 | 5.4 | CCc1nn(CCCN2CCN(c3cccc(Cl)c3)CC2)c(=O)n1CCOc1ccccc1 [Acetate] | –
– | 1.15 mg/min/cm 2 | 4.2 | CCc1nn(CCCN2CCN(c3cccc(Cl)c3)CC2)c(=O)n1CCOc1ccccc1 [D-Malate] | –
– | 1.13 mg/min/cm 2 | 3.7 | CCc1nn(CCCN2CCN(c3cccc(Cl)c3)CC2)c(=O)n1CCOc1ccccc1 [D-Tartrate] | –
– | 1.2 mg/min/cm 2 | 3.7 | CCc1nn(CCCN2CCN(c3cccc(Cl)c3)CC2)c(=O)n1CCOc1ccccc1 [DL-Tartrate] | –
– | 0.30 mg/min/cm 2 | 4.8 | CCc1nn(CCCN2CCN(c3cccc(Cl)c3)CC2)c(=O)n1CCOc1ccccc1 [Maleate] | –
– | 2.7 mg/min/cm 2 | 4.0 | CCc1nn(CCCN2CCN(c3cccc(Cl)c3)CC2)c(=O)n1CCOc1ccccc1 [Mesylate] | drug release from tablets [2]: good but not excessive dissolution; drug release from tablets ([2]; listed as mesylate salt): more modest release; drug release from tablets [5]: best of class dissolution; drug release from tablets ([5]; listed as mesylate salt): performs better than the other salts; solubility throughout the gastrointestinal tract [6]: exhibit solubility throughout the gastrointestinal tract; stability [7]: stable solid; also recorded: stable under conditions of pharmaceutical processing and storage; drug release from tablets [8]: outperforms the others; concentration of drug dissolved compared to the hydrochloride salt [9]: in the higher grouping, the mesylate is not the best of those shown
Low solubilities | 0.002 mg/min/cm 2 | 7.2 | CCc1nn(CCCN2CCN(c3cccc(Cl)c3)CC2)c(=O)n1CCOc1ccccc1 [Nefazodone base] | pka ([10]; first of two pka values): about 6.4; pka ([10]; second of two pka values): ~9.5; nefazodone release in the human intestinal tract ([3]; pH approaches neutrality): inhibited; aqueous solubility ([4]; pH values greater than 6): low aqueous solubility
Low solubilities | 0.16 mg/min/cm 2 | 5.0 | CCc1nn(CCCN2CCN(c3cccc(Cl)c3)CC2)c(=O)n1CCOc1ccccc1 [Succinate] | –
